Some test systems named below: DMS 114 small cell lung; DMS 273 small cell lung; DU-145 prostate; LXFL 529 NSCLC; NCI-H23 lung; PC-3 prostate; SK-MEL-2 melanoma; SK-MEL-28 melanoma; SK-OV-3 ovarian; SNB-75 CNS; SNB-78 CNS.
Common to all, as to test: NCI-60 cell line screen, 48 h

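Step 1: Grow cells in 96-well plates. Step 2: Expose to compound for 48 hours at 5 concentrations. Step 3: Interpolate endpoints linearly; if unreached, use highest concentration. TGI is the concentration that stops growth completely.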

As to `O=C1C=C(Br)c2c(-c3ccccc3)oc3cccc1c23`, the TGI in the test with DMS 114 small cell lung, in the test with DMS 273 small cell lung, in the test on DU-145 prostate, in the test on LXFL 529 NSCLC, in the test with NCI-H23 lung and with PC-3 prostate was over 100 µM each time. For the same molecule, the TGI was over 100 µM in the test on SK-MEL-2 melanoma; over 100 µM in the test on SK-MEL-28 melanoma; over 100 µM in the test with SK-OV-3 ovarian; 42.5 µM with SNB-75 CNS; over 100 µM in the test on SNB-78 CNS.
As for `Nn1c(-c2ccccc2Cl)nc2ccccc2c1=O`, the TGI in the test with DMS 114 small cell lung, with DMS 273 small cell lung, in the test with LXFL 529 NSCLC, in the test on NCI-H23 lung, in the test on SK-MEL-2 melanoma and with SK-MEL-28 melanoma was over 100 µM each time. Also, the TGI in the test on SK-OV-3 ovarian, with SNB-75 CNS and with SNB-78 CNS was over 100 µM in each case.
For the molecule `CCCCNCC(=O)O[C@]1(CC)C(=O)OCc2c1cc1n(c2=O)Cc2cc3ccccc3nc2-1`, the TGI was 4.69 µM with DMS 114 small cell lung; 0.236 µM in the test with DMS 273 small cell lung; 1.32 µM with DU-145 prostate; 56.8 µM in the test on LXFL 529 NSCLC; 0.877 µM with NCI-H23 lung; over 100 µM with PC-3 prostate. The TGI in the test with SK-MEL-2 melanoma was 8.76 µM; in the test on SK-MEL-28 melanoma it was over 93.8 µM; in the test on SK-OV-3 ovarian it was over 40.5 µM; in the test on SNB-75 CNS it was 3.44 µM; with SNB-78 CNS, over 100 µM.

Values taken from PubChem BioAssay (NCI).
